The values below come from US8361993B2, “Hydroxy-bisphosphonic acid derivatives as vector targeting bone tissue” (Universite de Nantes, priority 2008, dated 2013).

The subject of one data set is mice (Swiss strain). Put plainly: in vivo bone tropism test in young mice, 4 weeks of treatment. Particulars: 0.35 μmol/kg sub-cutaneously twice a week; for specific bone volume BV/TV, left femur / specific bone volume BV/TV, average of left and right femur / specific bone volume BV/TV, right femur: 4 weeks; for specific bone volume BV/TV, left femur: control 56.58%; for specific bone volume BV/TV, average of left and right femur: control 62.89%; for specific bone volume BV/TV, right femur: control 69.20%.

Another data set deals with murine fibroblast L929. The experiment in a line: cells. In kind it is cell-based. Particulars: Mus musculus, L929, 72 h.
Data set [1] has as its system POS-1 mouse osteosarcoma. Put plainly: cells. Particulars: 72 h. In kind it is cell-based.
Data set [2] concerns POS-1 mouse osteosarcoma. Particulars: in vivo.
In the next data set the test system is mice. The experiment in a line: administration of the fluorescent molecule in mice. Particulars: mouse, in vivo.
In a further data set the test system is different cell lines. The experiment in a line: in vitro cytotoxicity of the fluorescent molecule. The data set is classed as cell-based.
The subject of data set [3] is POS1 osteosarcoma cell line. The experiment in a line: viability/cytotoxicity test on osteosarcoma line POS1. In kind it is cell-based. The note with it: mouse osteosarcoma cell line. As to the method: (§1) The biological activities (viability/cytotoxicity test) of the molecules (III) and (IV) were tested in vitro on cultures of human, murine and rat osteosarcoma lines in comparison with normal cells (healthy osteoblasts from mouse calvaria).

For data set [4], the system named is MG63 osteosarcoma cell line. Put plainly: viability/cytotoxicity test on osteosarcoma line MG63. In kind it is cell-based. The note with it: MG-63; human osteosarcoma cell line. As to the method:
as §1

Data set [5] has as its system OSRGA osteosarcoma cell line. The experiment in a line: viability/cytotoxicity test on osteosarcoma line OSRGA. In kind it is cell-based. The note with it: rat osteosarcoma cell line. As to the method: as §1
The test system of data set [6] is Mouse osteosarcoma POS1 cells. The experiment in a line: in vivo osteolytic primitive bone tumor model, POS1 tumor fragments transplanted into para-osteal site. The note with it: treated versus untreated (control) mice; FIG. 3. The protocol:
Mouse osteosarcoma POS1 cells were injected in the pad of a 5-week old male mouse of the C3H/HeN strain. Fragments of the tumor which develops on this site are then transplanted into a para-osteal site in order to induce development of an osteolytic primitive bone tumor. The molecule (IV) was then injected as a cure of […] injections (IP) of 11.5 or 115 μmol/kg at 24 hr intervals from the 7th day (D7) after tumoral induction.

pIC50: −log10 of the molar value. Structures can show the parent of a compound that is named as a salt. Where two headings read alike, the source gives them in different places.

Regarding `O=P(O)(O)C(O)(Cn1ccnc1)P(=O)(O)O` [Disodium salt of zoledronic acid, zoledronic acid, reference compound], in the data set on mice (Swiss strain), the “specific bone volume BV/TV, left femur” value came to 72.72%; the “specific bone volume BV/TV, average of left and right femur” value turned out to be 74.02%; the “specific bone volume BV/TV, right femur” value came out at 75.33%. Moreover, in the data set with mice (Swiss strain) (after 4 weeks), the “weight follow-up and general condition of the mice” value was “no incidence on the weight follow-up, nor on the general condition”.
The pIC50 is −log10 of the IC50, conventionally taken in molar units. As to `NP(=O)(OCc1cccc(OCCCBr)c1)N(CCCl)CCCl` (centres unmarked) [Molecule 2], the pIC50 was under 3.30 with murine fibroblast L929 (read-out: IC50 L929 (DMSO)), 3.60 with murine fibroblast L929 (read-out: IC50 L929 (ethanol)), 3.70 with POS-1 mouse osteosarcoma [1] (read-out: IC50 POS-1 (DMSO)) and 3.52 in the data set with POS-1 mouse osteosarcoma [1] (read-out: IC50 POS-1 (ethanol)). Also, the survival rate result in the data set on POS-1 mouse osteosarcoma [2] was “significant increase”.
As to `CN(CCCOc1cccc(COP(N)(=O)N(CCCl)CCCl)c1)CCC(=O)OC(C)(C)C` (centres unmarked) [Molecule 3], the pIC50 is 3.30 with murine fibroblast L929 (read-out: IC50 L929 (DMSO)), under 3.30 in the data set with murine fibroblast L929 (read-out: IC50 L929 (ethanol)), 3.55 with POS-1 mouse osteosarcoma [1] (read-out: IC50 POS-1 (DMSO)) and 3.30 with POS-1 mouse osteosarcoma [1] (read-out: IC50 POS-1 (ethanol)).
Consider `CN(CCCOc1ccccc1)CCC(O)(P(=O)(O)O)P(=O)(O)O` [Molecule 4], for which, in the data set on mice (Swiss strain), the “specific bone volume BV/TV, left femur” value is recorded as 73.69%; the “specific bone volume BV/TV, average of left and right femur” value is 73.88%; the “specific bone volume BV/TV, right femur” value is recorded as 74.08%. Besides, in the data set with mice (Swiss strain) (after 4 weeks, versus control mice, FIG. 2), the “mineral density on radiographs” value is “increase in the mineral density”.
Consider `CN(CCCOc1cccc(CN(C)S(=O)(=O)c2cccc3c(N(C)C)cccc23)c1)CCC(O)(P(=O)(O)O)P(=O)(O)O` [Molecule (II), 3-((3-(3-((5-dimethylamino)-N-methylnaphthalene-1-sulfonamido)methyl)phenoxy)propyl(methyl)amino)-1-hydropropane-1,1-diyldiphosphonic acid], for which the “cytotoxic activity after administration in mice” value with mice is reported as “did not either reveal any cytotoxic activity”. Further, the “cytotoxic activity in vitro” value with different cell lines is “did not have any cytotoxic activity”.
Take `CN(CCCOc1cccc(COP(N)(=O)N(CCCl)CCCl)c1)CCC(O)(P(=O)(O)O)P(=O)(O)O` (centres unmarked) [Molecule (III), 3-((3-(3-((amino(bis(2-chloroethyl)amino)phosphoryloxy)methyl)phenoxy)propyl)(methyl)amino)-1-hydroxypropane-1,1-diyl-diphosphonic acid]: the negative logarithm of the IC50 (pIC50) in data set [3], in [4] and in data set [5] was under 3.70 in each case.
Regarding `CN(CCCOc1cccc(COCCOP(N)(=O)N(CCCl)CCCl)c1)CCC(O)(P(=O)(O)O)P(=O)(O)O` (centres unmarked) [Molecule (IV), {3-[(3-{3-[6-amino-9-chloro-7-(2-chloroethyl)-6-oxido-2,5-dioxa-7-aza-6-phosphanon-1-yl]phenoxy}propyl)(methyl)amino]-1-hydroxypropane-1,1-diyl}biphosphonic acid], the pIC50 in data set [3], in data set [4] and in data set [5] was under 3.30 each time. Besides, the “bone mineral density in the epiphyseal area (radiographs)” value in data set [6] was “increase in the bone mineral density”.
